Values quoted from earlier work, collected in patent US20220347117A1 (priority 2021, published 2022).

## C=CCN1CC[C@]23c4c5ccc(O)c4O[C@H]2C(=O)CC[C@@]3(O)[C@H]1C5 [naloxone]
  pKa: about 7.94
